Assay results reported in the supplement of paper PMC10307832.

Key:
Assay in all cases: relative viability (nuclei count vs DMSO), 5 days (fraction); higher = more cells survive
Pictilisib + Trametinib = compound: CS(=O)(=O)N1CCN(Cc2cc3nc(-c4cccc5[nH]ncc45)nc(N4CCOCC4)c3s2)CC1 [Pictilisib] + CC(=O)Nc1cccc(-n2c(=O)n(C3CC3)c(=O)c3c(Nc4ccc(I)cc4F)n(C)c(=O)c(C)c32)c1 [Trametinib] (partner 0.02 µM)
Procedure, shortened: (§1)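 Relative viability divides the nuclei count in treated wells by that in vehicle wells. Lung cancer cell lines were seeded in 1536-well plates, dosed by pin tool the next day, and fixed and stained after 5 days in one step with final 0.05% Triton X-100, 1% formaldehyde and 1 ug/ml Hoechst. Dosing was a single drug or a fixed anchor-drug dose plus five library-drug doses (not always all listed) in √10 steps, and values are medians of duplicate plates imaged at 4×.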

Pictilisib + Olaparib = compound: CS(=O)(=O)N1CCN(Cc2cc3nc(-c4cccc5[nH]ncc45)nc(N4CCOCC4)c3s2)CC1 [Pictilisib] + O=C(c1cc(Cc2n[nH]c(=O)c3ccccc23)ccc1F)N1CCN(C(=O)C2CC2)CC1 [Olaparib] (partner 8 µM)
Procedure, shortened: as §1

MK-2206 + Palbociclib = compound: NC1(c2ccc(-c3nc4ccn5c(=O)[nH]nc5c4cc3-c3ccccc3)cc2)CCC1 [MK-2206] + CC(=O)c1c(C)c2cnc(Nc3ccc(N4CCNCC4)cn3)nc2n(C2CCCC2)c1=O [Palbociclib] (partner 0.5 µM)
Procedure, shortened: as §1

MK-2206 + Linsitinib = compound: NC1(c2ccc(-c3nc4ccn5c(=O)[nH]nc5c4cc3-c3ccccc3)cc2)CCC1 [MK-2206] + C[C@]1(O)C[C@@H](c2nc(-c3ccc4ccc(-c5ccccc5)nc4c3)c3c(N)nccn32)C1 [Linsitinib] (partner 1 µM)
Procedure, shortened: as §1

MK-2206 + Decitabine = compound: NC1(c2ccc(-c3nc4ccn5c(=O)[nH]nc5c4cc3-c3ccccc3)cc2)CCC1 [MK-2206] + Nc1ncn([C@H]2C[C@H](O)[C@@H](CO)O2)c(=O)n1 [Decitabine] (partner 2 µM)
Procedure, shortened: as §1

Cell Line	relative viability (Pictilisib + Trametinib; first compound 0.02 µM)	relative viability (Pictilisib + Trametinib; first compound 0.06325 µM)	relative viability (Pictilisib + Trametinib; first compound 0.6325 µM)	relative viability (Pictilisib + Trametinib; first compound 2 µM)	relative viability (Pictilisib + Olaparib; first compound 0.02 µM)	relative viability (Pictilisib + Olaparib; first compound 0.06325 µM)	relative viability (Pictilisib + Olaparib; first compound 0.6325 µM)	relative viability (Pictilisib + Olaparib; first compound 2 µM)	relative viability (MK-2206 + Palbociclib; first compound 0.01 µM)	relative viability (MK-2206 + Palbociclib; first compound 0.03162 µM)	relative viability (MK-2206 + Palbociclib; first compound 0.3162 µM)	relative viability (MK-2206 + Palbociclib; first compound 1 µM)	relative viability (MK-2206 + Linsitinib; first compound 0.01 µM)	relative viability (MK-2206 + Linsitinib; first compound 0.03162 µM)	relative viability (MK-2206 + Linsitinib; first compound 0.3162 µM)	relative viability (MK-2206 + Linsitinib; first compound 1 µM)	relative viability (MK-2206 + Decitabine; first compound 0.01 µM)	relative viability (MK-2206 + Decitabine; first compound 0.03162 µM)	relative viability (MK-2206 + Decitabine; first compound 0.3162 µM)	relative viability (MK-2206 + Decitabine; first compound 1 µM)
NCI-H1666	0.802	0.892	0.622	0.575	0.751	0.762	0.813	0.756	0.63	0.675	0.652	0.586	0.753	0.73	0.695	0.709	0.589	0.703	0.765	0.684
SK-MES-1	0.537	0.434	0.331	0.226	0.881	0.654	0.474	0.296	0.327	0.296	0.289	0.256	1.03	1.1	1.05	1.06	0.383	0.4	0.371	0.321
NCI-H2023	0.52	0.404	0.315	0.172	0.521	0.451	0.354	0.134	0.39	0.347	0.297	0.208	0.642	0.586	0.438	0.312	0.247	0.225	0.243	0.211
COR-L 105	0.382	0.4	0.432	0.38	0.667	0.697	0.734	0.549	0.428	0.436	0.441	0.408	0.941	0.895	0.67	0.629	0.656	0.568	0.624	0.779
NCI-H838	0.431	0.453	0.374	0.246	0.775	0.718	0.603	0.293	0.223	0.226	0.203	0.193	1	1.03	1.02	0.95	0.472	0.494	0.496	0.451
SW 1573	0.563	0.473	0.379	0.239	0.512	0.542	0.377	0.22	0.571	0.335	0.294	0.298	0.751	0.824	0.665	0.592	0.505	0.43	0.502	0.453
